Test results as given in the RepoRT retention time repository (doi:10.1016/j.jhazmat.2019.121712).

Assay: Thermo Scientific Acclaim RSLC 120 C18, 100 × 2.1 mm, 2.2 µm, 30 °C; A: 90% water + 10% methanol + 0.01% formic acid + 5 mM ammonium formate; B: methanol + 0.01% formic acid + 5 mM ammonium formate; gradient (min/%B) 0.1/1 3/39 14/99.9 16/99.9
Details: stereoisomer not certain

Compound	LC retention time
CCN(C(C)=O)c1cccc(-c2ccnc3c(C#N)cnn23)c1	6.61 min
CCC(C)OC(=O)N1CCCCC1CCO (centres undefined)	8.83 min
CCSc1ccc2c(c1)N(CCCN1CCN(C)CC1)c1ccccc1S2	10.4 min
CNC(=O)ON=CC(C)(C)SC	6.17 min
NCCc1ccc(O)cc1	2.28 min
CCOC(=O)N(C)C(=O)CSP(=S)(OCC)OCC	10.2 min
CCCc1nn(C)c2c(=O)[nH]c(-c3cc(C(=O)CN4CCN(C)CC4)ccc3OCC)nc12	6.99 min
Cc1nnc(SCC2=C(C(=O)O)N3C(=O)C(NC(=O)Cn4cnnn4)C3SC2)s1 (centres undefined)	4.16 min
O=C(c1cccc2ccccc12)c1cn(CCCCO)c2ccccc12	9.56 min
CCCC(NC)C(=O)c1ccc2c(c1)OCO2 (centres undefined)	4.99 min
CN1CCCCC1Cn1cc(C(=O)C23CC4CC(CC(C4)C2)C3)c2ccccc21 (centres undefined)	9.94 min
CC(CCc1ccc(O)cc1)NCCc1ccc(O)c(O)c1 (centres undefined)	4.21 min
CC(=O)Oc1c(C)cc(OCC(O)CNC(C)C)c(C)c1C (centres undefined)	6.28 min
COc1ccc2nc(S(=O)Cc3ncc(C)c(OC)c3C)[nH]c2c1 (centres undefined)	7.81 min
O=C1CC2(CCCC2)CC(=O)N1CCCCN1CCN(c2ncccn2)CC1	5.78 min
O=C1OCCN1N=Cc1ccc([N+](=O)[O-])o1	4.19 min
CC(N)C12CC3CC(CC(C3)C1)C2 (centres undefined)	6.71 min
CN1CCc2cccc3c2C1Cc1ccc(O)c(O)c1-3 (centres undefined)	4.28 min
CCCCn1cc(C(=O)c2cccc3ccccc23)c2ccccc21	11.9 min
O=C1OC(c2ccc(O)cc2)(c2ccc(O)cc2)c2ccccc21	7.06 min
CN(CCOc1ccc(CC2SC(=O)NC2=O)cc1)c1ccccn1 (centres undefined)	6.98 min

Compound	LC retention time
Nc1ccc(S(=O)(=O)Nc2ccccn2)cc1	3.8 min
c1ccc(C(CCN2CCCCC2)c2ccccc2)cc1	6.82 min
COC(C)C(O)(C(=O)OCC1=CCN2CCC(O)C12)C(C)C (centres undefined)	4.27 min
O=C1C(CCS(=O)c2ccccc2)C(=O)N(c2ccccc2)N1c1ccccc1 (centres undefined)	7.94 min
CCOP(=S)(OCC)SCSP(=S)(OCC)OCC	12.4 min
Nc1cc(-c2ccncc2)c[nH]c1=O	2.88 min
CN1CCC23c4c5ccc(O)c4OC2CCCC3C1C5 (centres undefined)	3.84 min
CN(C)CCc1c[nH]c2cccc(O)c12	3.29 min
CSc1nnc(C(C)(C)C)c(=O)n1N	7.07 min
O=C(c1cccc2ccccc12)c1cn(CCCCCO)c2ccccc12	10 min
Cc1nnc(-c2ccccc2)c(=O)n1N	5.24 min
NC(=O)N1c2ccccc2C=Cc2ccccc21	7.36 min
c1ccc(C(c2ccccc2)C2CCCCN2)cc1 (centres undefined)	6.3 min
Cc1cc(C)nc(NS(=O)(=O)c2ccc(N)cc2)n1	4.31 min
CNC(=O)Oc1cc(C)cc(C(C)C)c1	9.51 min
CSc1ccc(C(=O)c2[nH]c(=O)[nH]c2C)cc1	6.67 min
C=C(C)C1Cc2c(ccc3c2OC2COc4cc(OC)c(OC)cc4C2C3=O)O1 (centres undefined)	10.5 min
CNC(C)C(O)c1ccc(O)cc1 (centres undefined)	2.05 min
CCCCN(CCCC)SN(C)C(=O)Oc1cccc2c1OC(C)(C)C2	13.8 min
COc1ccc2[nH]cc(CCN)c2c1	4.01 min
CC(C)(C)NCC(O)COc1cccc2c1CC(O)C(O)C2 (centres undefined)	4.29 min

Compound	LC retention time
CN1C2CCCC1CC(NC(=O)c1nn(C)c3ccccc13)C2 (centres undefined)	4.99 min
CCC(N)Cc1c[nH]c2ccccc12 (centres undefined)	5.04 min
CN1CCOC(c2ccccc2)c2ccccc2C1 (centres undefined)	5.67 min
NC(=O)C1CCCN1 (centres undefined)	1.31 min
CN(C)c1nc(=O)n(C2CCCCC2)c(=O)n1C	7.09 min
CC(C)NCC(O)COc1cccc2ccccc12 (centres undefined)	6.59 min
COC1(C)CC(c2ccccc2)c2c(c3ccccc3oc2=O)O1 (centres undefined)	11.1 min
NC(=O)c1ncn(C2OC(CO)C(O)C2O)n1 (centres undefined)	1.36 min
CC(CN1c2ccccc2Sc2ccc(S(=O)(=O)N(C)C)cc21)N(C)C (centres undefined)	7.01 min
CN(C)CCc1c[nH]c2ccc(O)cc12	2.82 min
CCNc1nc(NC(C)CC)nc(OC)n1 (centres undefined)	8.79 min
CCOc1ccc(NC(C)=O)cc1	5.93 min
CC(C)(C)NCC(O)COc1ccc(NC(=O)NC2CCCCC2)cc1 (centres undefined)	6.58 min
NC(N)=Nc1nc(CSCCC(N)=NS(N)(=O)=O)cs1	3.24 min
CCCCCCC(C)(C)c1ccc(C2CCCC(O)C2)c(O)c1 (centres undefined)	13.1 min
O=C(Nc1ccc(C(=O)O)c(O)c1)c1ccccc1	5.47 min
CN=C(NC)NCc1ccccc1	3.97 min
CCCCCCCCCc1ccc(OCCOCCO)cc1	13.8 min
CN1CCCCC1Cn1cc(C(=O)c2cccc3ccccc23)c2ccccc21 (centres undefined)	8.09 min
CCOP(=S)(Oc1ccc([N+](=O)[O-])cc1)c1ccccc1 (centres undefined)	11.7 min
CN(C)NC(=O)CCC(=O)O	6.28 min

Compound	LC retention time
CCCCCCC(C)(C)c1ccc(C2CC(O)CCC2CCCO)c(O)c1 (centres undefined)	12 min
CCNc1nc(NC(C)C)[nH]c(=O)n1	5.03 min
COC(=O)NS(=O)(=O)c1ccc(N)cc1	3.41 min
CN(C)CC(c1ccc(O)cc1)C1(O)CCCCC1 (centres undefined)	4.76 min
CC(CN(C)C)CN1c2ccccc2CCc2ccccc21 (centres undefined)	8.31 min
CCCc1nc(C)c2c(=O)[nH]c(-c3cc(C(=O)CN4CCN(CC)CC4)ccc3OCC)nn12	7.16 min
CCC(C(=O)c1ccc2c(c1)OCO2)N1CCCC1 (centres undefined)	4.49 min
COC(=O)C1C(O)CCC2CN3CCc4c([nH]c5ccccc45)C3CC21 (centres undefined)	5.08 min
CCCc1nn(C)c2c(=O)[nH]c(-c3cc(S(=O)(=O)N4CCN(CCO)CC4)ccc3OCC)nc12	7.83 min
COc1ccccc1CC(=O)c1cn(CCC2CCCCC2)c2ccccc12	13 min
CC1(C)SC2C(NC(=O)C(N)c3ccccc3)C(=O)N2C1C(=O)O (centres undefined)	4.21 min
CCCCNC(=O)n1c(NC(=O)OC)nc2ccccc21	5.46 min
CCOC(=O)C(c1ccccc1)C1CCCCN1 (centres undefined)	5.08 min
COc1ccc2cc(C(C)C(=O)O)ccc2c1 (centres undefined)	8.99 min
CC(CCN1CCOCC1)OC(=O)C1(c2ccccc2)CCOCC1 (centres undefined)	6.12 min
CCN(C(=O)SCc1ccccc1)C(C)C(C)C (centres undefined)	12.2 min
O=C1CN=C(c2ccccc2)c2cc([N+](=O)[O-])ccc2N1	7.79 min
Cc1ccc2c(-c3ccccc3)nc(=O)n(C(C)C)c2c1	9.61 min
CC(=O)Oc1ccc(C(c2ccc(OC(C)=O)cc2)c2ccccn2)cc1	8.92 min
CNC(=C[N+](=O)[O-])NCCSCc1ccc(CN(C)C)o1	3.14 min
O=C1NCC(=O)N2C1Cc1c([nH]c3ccccc13)C2c1ccc2c(c1)OCO2 (centres undefined)	7.99 min
